Measured values as given in patent US8007767B2, “Amino methyl imidazoles and related compounds as C5a receptor modulators” (Novartis International Pharmaceutical Ltd., priority 2002, dated 2011).

target: T1, human C5a receptor (Homo sapiens, UniProt P21730); test: standard assay of C5a receptor mediated calcium mobilization (Example 20); assay type: cell-based; conditions: differentiated U937 cells, read-out: Ki < 1 μM
T1 construct: endogenous in cells; host or cells: U937 cells differentiated with 1 mM dibutyryl cAMP
T1 sequence (P21730 1-350): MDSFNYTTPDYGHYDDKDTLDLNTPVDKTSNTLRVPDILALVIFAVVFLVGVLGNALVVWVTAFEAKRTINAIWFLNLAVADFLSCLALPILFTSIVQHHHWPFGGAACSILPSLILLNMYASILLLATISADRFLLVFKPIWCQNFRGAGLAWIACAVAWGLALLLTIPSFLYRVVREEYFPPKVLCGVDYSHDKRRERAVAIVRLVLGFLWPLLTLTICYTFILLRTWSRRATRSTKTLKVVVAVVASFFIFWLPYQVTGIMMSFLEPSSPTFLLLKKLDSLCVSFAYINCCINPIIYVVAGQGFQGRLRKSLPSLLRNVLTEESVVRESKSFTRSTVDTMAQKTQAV
Experimental: U937 cells are grown in differentiation media (1 mM dibutyrl cAMP in RPMI 1640 medium containing 10% fetal bovine serum) for 48 hours at 37° C. then reseeded onto 96-well plates suitable for use in a FLIPR™ Plate Reader (Molecular Devices Corp., Sunnyvale Calif.). Cells are grown an additional 24 hours (to 70-90% confluence) before the assay. The cells are then washed once with Krebs Ringer solution. FLUO-3 calcium sensitive dye (Molecular Probes, Inc. Eugene, Oreg.) is added to 10 μg/mL and incubated with the cells at room temperature for 1 to 2 hours. The 96 well plates are then washed to remove excess dye.
C. Assays for the Identification of Receptor Modulatory Agents: Antagonists and Agonists
Those of skill in the art will recognize that the calcium mobilization assay described above may be readily adapted for identifying test compounds as having agonist or antagonist activity, at the human C5a receptor.
For example, in order to identify antagonist compounds, differentiated U937 cells are washed and incubated with Fluo-3 dye as described above. One hour prior to measuring the fluorescence signal, a subset of the cells is incubated with a 1 uM concentration of at least one compound to be tested. The fluorescence response upon the subsequent addition of 0.3 nM (final concentration) human recombinant C5a is monitored using the FLIPR™ plate reader. Antagonist compounds elicit at least a 2-fold decrease in the fluorescence response relative to that measured in the presence of human C5a alone. Preferred antagonist compounds elicit at least a 5-fold, preferably at least a 10-fold, and more preferably at least a 20-fold decrease in the fluorescence response relative to that measured in the presence of human C5a alone.

Ki, < 1 µM:
CCCCn1c(N2CCOCC2)nc(Cl)c1CN(CCC(C)C)C(C)c1ccc2c(c1)OCCO2 (centres unmarked) [Compound 20, N-{(1-butyl-4-chloro-2-morpholin-4-yl-1H-imidazol-5-yl)methyl]-N-[1-(2,3-dihydro-1,4-benzodioxin-6-yl)ethyl]-3-methylbutan-1-amine]
CCCCn1c(CN(Cc2ccccc2)Cc2ccc3c(c2)OCCO3)cnc1C1CCCCC1 [Compound 10, Benzyl-(1-butyl-2-cyclohexyl-3H-imidazol-5-ylmethyl)-(2,3-dihydro-benzo[1,4]dioxin-6-ylmethyl)-amine]
CCCCn1c(N2CCOCC2)nc(Cl)c1CN(CCC(C)C)Cc1ccc2c(c1)CCCN2 [Compound 22]
CCCCn1c(CN(Cc2ccccc2)Cc2ccc3c(c2)OCO3)cnc1C1CCCCC1 [Compound 9, Benzo[1,3]dioxol-5-ylmethyl-benzyl(1-butyl-2-cyclohexyl-3H-imidazol-5-ylmethyl)-amine]
CCCCN(Cc1ccc2c(c1)OCCO2)Cc1c(Cl)nc(N2CCOCC2)n1CCCC [Compound 17, N-[(1-butyl-4-chloro-2-morpholin-4-yl-1H-imidazol-5-yl)methyl]-N-(2,3-dihydro-1,4-benzodioxin-6-ylmethyl)butan-1-amine]
CCCCn1c(N2CCOCC2)nc(Cl)c1CN(CCC(C)C)Cc1ccc2c(c1)OCCO2 [Compound 18, N-[(1-butyl-4-chloro-2-morpholin-4-yl-1H-imidazol-5-yl)methyl]-N-(2,3-dihydro-1,4-benzodioxin-6-ylmethyl)-3-methylbutan-1-amine]
CCCCn1c(C2=CCCCC2)nc(-c2ccccc2)c1CN(Cc1ccc2c(c1)OCO2)Cc1ccc2c(c1)OCO2 [Compound 12, 1-(1,3-benzodioxol-5-yl)-N-(1,3-benzodioxol-5-ylmethyl)-N-[(1-butyl-2-cyclohex-1-en-1-yl-4-phenyl-1H-imidazol-5-yl)methyl]methanamine]
CCCCn1c(N2CCOCC2)nc(Cl)c1CN(Cc1ccc(C(=O)OC)cc1)Cc1ccc2c(c1)OCCO2 [Compound 14, methyl 4-{[[(1-butyl-4-chloro-2-morpholin-4-yl-1H-imidazol-5-yl)methyl](2,3-dihydro-1,4-benzodioxin-6-ylmethyl)amino]methyl}benzoate]
CCCCn1c(N2CCCCC2)nc(Cl)c1CN(Cc1cccc(OCC)c1)Cc1ccc2c(c1)OCCO2 [Compound 21, 1-(1-butyl-4-chloro-2-piperidin-1-yl-1H-imidazol-5-yl)-N-(2,3-dihydro-1,4-benzodioxin-6-ylmethyl)-N-(3-ethoxybenzyl)methanamine]
CCCCN(Cc1ccc2[nH]ccc2c1)Cc1c(Cl)nc(N2CCOCC2)n1CCCC [Compound 16, N-[(1-butyl-4-chloro-2-morpholin-4-yl-1H-imidazol-5-yl)methyl]-N-(1H-indol-5-ylmethyl)butan-1-amine]
CCCCn1c(N2CCOCC2)nc(Cl)c1CN(Cc1ccc(C(=O)O)cc1)Cc1ccc2c(c1)OCCO2 [Compound 15, 4-{[[(1-butyl-4-chloro-2-morpholin-4-yl-1H-imidazol-5-yl)methyl](2,3-dihydro-1,4-benzodioxin-6-ylmethyl)amino]methyl}benzoic acid]
CCCCN(Cc1c(Cl)nc(N2CCOCC2)n1CCCC)C(C)c1ccc2c(c1)OCCO2 (centres unmarked) [Compound 19, N-[(1-butyl-4-chloro-2-morpholin-4-yl-1H-imidazol-5-yl)methyl]-N-[1-(2,3-dihydro-1,4-benzodioxin-6-yl)ethyl]butan-1-amine]
CCCCn1c(C2CC=CCC2)nc(-c2ccccc2)c1CN(Cc1ccc2c(c1)OCO2)Cc1ccc2c(c1)OCO2 (centres unmarked) [Compound 13, 1-(1,3-benzodioxol-5-yl)-N-(1,3-benzodioxol-5-ylmethyl)-N-[(1-butyl-2-cyclohex-3-enyl-4-phenyl-1H-imidazol-5-yl)methyl]methanamine]
CCCCn1c(C2CC2)nc(-c2ccccc2)c1CN(Cc1ccc2c(c1)OCO2)Cc1ccc2c(c1)OCO2 [Compound 11, 1-(1,3-benzodioxol-5-yl)-N-(1,3-benzodioxol-5-ylmethyl)-N-[(1-butyl-2-cycloproyl-4-phenyl-1H-imidazol-5yl)methyl]methanamine]
